# Measured values published in PubChem BioAssay (NCI).
# “And” between values parts separate entries of the source, which are not always exact repeats. Equal values may be shown once.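 Tested at 5 concentrations; 48 h exposure; 96-well plates; endpoints linearly interpolated, else capped at highest concentration. GI50 marks 50% less growth. TGI: concentration producing complete growth inhibition.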
# What was measured:
# Test in all cases: NCI anticancer screen, dose series, 48 h
# [1] = test system: UO-31 renal
# [2] = test system: HOP-92 NSCLC
# [3] = test system: MDA-MB-435
# [4] = test system: 786-0 renal
# [5] = test system: M14 melanoma
# [6] = test system: SK-MEL-2 melanoma
# [7] = test system: ACHN renal
# [8] = test system: TK-10 renal
# [9] = test system: HOP-62 NSCLC
# [10] = test system: CCRF-CEM leukemia
SMILES,GI50 [1],TGI [1],GI50 [2],TGI [2],TGI [3],GI50 [4],GI50 [5],TGI [5],GI50 [6],TGI [6],GI50 [7],TGI [7],GI50 [8],TGI [8],GI50 [9],TGI [9],TGI [10],GI50 [3],TGI [4],GI50 [10]
CC[C@@]1(OP(=O)(O)O)C(=O)OCc2c1cc1n(c2=O)Cc2cc3ccccc3nc2-1,0.099 µM,0.625 µM and 1.03 µM,1.24 µM,2.7 µM and 6.46 µM,2.11 µM,0.0367 µM,0.173 µM,1.87 µM and 5.28 µM,1.85 µM,7.36 µM and 5.05 µM,0.0243 µM,0.853 µM and 0.26 µM,4.62 µM,88 µM,0.0131 µM,1.47 µM and 0.248 µM,0.118 µM and 0.319 µM,,,
Cc1ccc(NC(=O)c2ccc(CN3CCN(C)CC3)cc2)cc1Nc1nc(-c2cccnc2)cs1,12.4 µM and 6.42 µM,26.9 µM and > 10 µM,11 µM and > 10 µM,24.2 µM and > 10 µM,21.6 µM and > 10 µM,3.53 µM and 2.84 µM,7.66 µM and 3.44 µM,21.2 µM and > 10 µM,13.9 µM and > 10 µM,27.3 µM and > 10 µM,11.7 µM and 4.15 µM,24.7 µM and > 10 µM,16.8 µM and > 10 µM,30.6 µM and > 10 µM,16.3 µM and > 10 µM,29.9 µM and > 10 µM,28.1 µM and > 10 µM,8.24 µM and 5.64 µM,11.5 µM and 7.92 µM,4.14 µM and 4.81 µM
Cc1cc(I)cc(CNCCN(C)C)c1O,60.5 µM,> 100 µM,37.2 µM,> 100 µM,> 100 µM,> 92.2 µM,33.9 µM,> 100 µM,> 77.2 µM,> 100 µM,> 79.6 µM,> 100 µM,> 91.6 µM,> 100 µM,> 100 µM,> 100 µM,> 100 µM,37.1 µM,> 100 µM,> 100 µM
C=CCc1cccc(C=O)c1O,70.1 µM,> 100 µM,0.809 µM,59 µM,> 100 µM,> 100 µM,39.2 µM,> 100 µM,> 100 µM,> 100 µM,> 100 µM,> 100 µM,> 100 µM,> 100 µM,> 100 µM,> 100 µM,> 100 µM,> 100 µM,> 100 µM,4 µM
Sc1cccc2cccnc12,0.616 µM,11.9 µM,7.11 µM,20.5 µM,20.5 µM,1.22 µM,0.457 µM,6.09 µM,2.58 µM,15.3 µM,0.697 µM,12.8 µM,4.16 µM,15.6 µM,1.11 µM,12.3 µM,24.5 µM,2.66 µM,14.3 µM,0.392 µM
O=[N+]([O-])c1ccc(C2=NCCO2)cc1,> 100 µM,> 100 µM,> 100 µM,> 100 µM,> 100 µM,> 100 µM,> 100 µM,> 100 µM,> 100 µM,> 100 µM,> 100 µM,> 100 µM,> 100 µM,> 100 µM,> 100 µM,> 100 µM,> 100 µM,> 100 µM,> 100 µM,3.15 µM
CCN1CCN(CCC(=O)Nc2cccc(-n3cc(-c4ccncc4)c(-c4ccc(Cl)c(OC)c4)n3)c2)CC1,0.922 µM,2.53 µM,0.776 µM,6.43 µM,0.35 µM,0.701 µM,0.387 µM,1.73 µM,1.11 µM,2.55 µM,0.782 µM,2.71 µM,1.75 µM,5 µM,0.697 µM,2.43 µM,10.3 µM,0.123 µM,2.2 µM,0.374 µM
CCC(=C(c1ccc(OCCN2CCCCC2)cc1)c1ccc(OCCN2CCCCC2)cc1)c1ccc(Cl)cc1,2.32 µM,7.87 µM,1.57 µM,> 16.7 µM,5.39 µM,2.51 µM,0.669 µM,2.65 µM,9.5 µM,> 16.7 µM,7.12 µM,> 16.7 µM,> 16.7 µM,> 16.7 µM,> 16.7 µM,> 16.7 µM,> 16.7 µM,2.61 µM,5.09 µM,1.92 µM
O=C(N/N=C/c1ccc(Cl)cc1)c1ccc(NC(=O)c2ccccn2)cc1,11.2 µM,38.2 µM,5.23 µM,53.2 µM,> 100 µM,20.7 µM,56.8 µM,> 100 µM,17.7 µM,> 100 µM,19.1 µM,59.3 µM,16.6 µM,46.8 µM,18.2 µM,91.3 µM,> 100 µM,23.8 µM,59.6 µM,> 100 µM
CC1(C)N=C(N)N=C(N)N1c1ccc(OCCCNC(=O)Nc2ccc(S(=O)(=O)F)cc2)c(Cl)c1,69.5 µM,> 100 µM,2.74 µM,61.9 µM,> 100 µM,0.417 µM,0.493 µM,> 100 µM,0.79 µM,> 100 µM,4.45 µM,> 100 µM,0.907 µM,> 100 µM,0.82 µM,> 100 µM,> 100 µM,0.143 µM,> 100 µM,0.208 µM
Cc1ccc(N)c(S)c1,,26.7 µM,,30.2 µM,36.1 µM,,,30.8 µM,,31.5 µM,,37.9 µM,,43.1 µM,,44.4 µM,> 100 µM,,29.6 µM,
COc1ccc(C2=NN(C(N)=S)C(c3ccc4c(c3)OCO4)C2)cc1 (centres undefined),1.91 µM,7.99 µM,2.12 µM,8.05 µM,7.26 µM,3.8 µM,3.77 µM,35.4 µM,3.12 µM,38.9 µM,3.58 µM,> 100 µM,2.47 µM,9.54 µM,3.56 µM,> 100 µM,8.18 µM,2.39 µM,> 100 µM,2.5 µM
C[N+]1([O-])C2CCC1CC(OC(=O)C(CO)c1ccccc1)C2 (centres undefined),,> 100 µM,,> 100 µM,> 100 µM,,,> 100 µM,,> 100 µM,,> 100 µM,,> 100 µM,,> 100 µM,> 100 µM,,> 100 µM,
COc1cc(/C=C/C(=O)c2cccc(-n3cc(-c4ccccc4)[nH]c3=O)c2)cc(OC)c1OC,1.51 µM,4.56 µM,10.8 µM,35.6 µM,5.35 µM,1.38 µM,1.35 µM,2.72 µM,2.06 µM,4.98 µM,1.6 µM,3.21 µM,3.02 µM,9.35 µM,4.12 µM,13.6 µM,> 100 µM,1.2 µM,2.97 µM,0.64 µM
O=C(O)/C=C\C(=O)Nc1ccc2c(c1)-c1ccccc1C2,,> 100 µM,,> 100 µM,> 100 µM,,,> 100 µM,,> 100 µM,,> 100 µM,,> 100 µM,,> 100 µM,> 100 µM,,> 100 µM,
CC(C)=CC[C@@H]1CC2(CC=C(C)C)C(=O)C(OC3(C(=O)c4ccccc4)C(=O)C4(CC=C(C)C)C[C@@H](CC=C(C)C)C(C)(C)C(CC=C(C)C)(C4=O)C3=O)(C(=O)c3ccccc3)C(=O)C(CC=C(C)C)(C2=O)C1(C)C (some centres undefined),1.28 µM,4.82 µM,1.08 µM,2.86 µM,4.46 µM,0.963 µM,1.13 µM,3.13 µM,1.01 µM,3.04 µM,1.48 µM,5.99 µM,1.54 µM,8.04 µM,1.36 µM,4 µM,5.52 µM,1.41 µM,2.61 µM,1.64 µM
Cc1c2cnccc2c(C)c2c1c1ccccc1n2CCOC(=O)c1ccccc1,,15.3 µM,,71.9 µM,> 100 µM,,,> 100 µM,,31.8 µM,,56.3 µM,,40.9 µM,,31.5 µM,64.4 µM,,28.6 µM,
O=c1c2ccccc2nc(-c2cccc([N+](=O)[O-])c2)n1O,,> 100 µM,,> 75.1 µM,> 100 µM,,,> 100 µM,,91.1 µM,,> 100 µM,,> 100 µM,,> 100 µM,> 38.2 µM,,> 100 µM,
Nc1ccc(/C=C/c2ccc3ncccc3c2)cc1,2.32 µM,> 100 µM,12.9 µM,> 100 µM,> 100 µM,> 100 µM,> 100 µM,> 100 µM,> 100 µM,> 100 µM,> 100 µM,> 100 µM,86.5 µM,> 100 µM,> 100 µM,> 100 µM,> 100 µM,> 100 µM,> 100 µM,0.821 µM
C=C(CO)C(=O)OC1CC(=C)C2CC(O)C(C)C2C2OC(=O)C(=C)C12 (centres undefined),,36.6 µM,,77.6 µM,45.2 µM,,,33.4 µM,,32 µM,,34 µM,,33.2 µM,,46.5 µM,77.7 µM,,> 100 µM,
CC(C)=CCc1cc2c(cc1O)C1=C(C(=O)C3=C(NCCS3(=O)=O)C1=O)C(C=C(C)C)O2 (centres undefined),5.57 µM,> 16.7 µM,6.89 µM,> 16.7 µM,5.6 µM,9.97 µM,5.85 µM,> 16.7 µM,4.34 µM,15 µM,10.7 µM,> 16.7 µM,> 16.7 µM,> 16.7 µM,8.59 µM,> 16.7 µM,> 16.7 µM,2.89 µM,> 16.7 µM,4.53 µM
CN1CCN(Cc2ccc(NC(=O)c3cncc(C#Cc4cnc(N)c5ncccc45)c3)cc2C(F)(F)F)CC1,0.242 µM,1.21 µM,0.209 µM,1.24 µM,1.44 µM,1.12 µM,0.0698 µM,1.14 µM,0.142 µM,0.468 µM,0.177 µM,1.12 µM,0.686 µM,3.68 µM,0.448 µM,5.78 µM,,0.247 µM,2.52 µM,0.324 µM
N#CC1=C(N)Oc2c(sc3c(Br)cccc23)C1c1ccc([N+](=O)[O-])cc1 (centres undefined),0.126 µM,14.5 µM,0.0441 µM,8.82 µM,0.0807 µM,0.158 µM,0.0964 µM,11.8 µM,0.294 µM,17.5 µM,0.12 µM,13 µM,2.32 µM,20 µM,0.123 µM,14 µM,9.89 µM,0.0206 µM,11.9 µM,0.121 µM
COc1cc2cc(NCc3cccc(Cl)c3)nc(C)c2cc1OC,0.678 µM,14.4 µM,0.597 µM,14.3 µM,6.26 µM,1.7 µM,0.52 µM,10.1 µM,1.56 µM,12.6 µM,2.46 µM,23.1 µM,4.15 µM,36.6 µM,0.862 µM,22.2 µM,> 100 µM,0.969 µM,20.4 µM,2.54 µM
COc1cc2c(c3oc(-c4ccc(O)cc4)c(O)c(=O)c13)CCC(C)(C)O2,0.0281 µM,0.075 µM,0.217 µM,0.902 µM,0.204 µM,0.0788 µM,0.212 µM,0.523 µM,0.326 µM,,0.145 µM,,0.5 µM,> 100 µM,0.0712 µM,0.165 µM,> 100 µM,0.0427 µM,0.214 µM,0.359 µM
O=P1(NCCCl)OCCCN1CCCl (centres undefined),,441 µM,,367 µM,> 500 µM,,,> 500 µM,,419 µM,,> 500 µM,,> 500 µM,,444 µM,400 µM,,> 466 µM,
C=CCC1(O)c2ccccc2C(=O)c2c(OCC(=O)OCC)ccc(OCC(=O)OCC)c21 (centres undefined),> 100 µM,> 100 µM,41.9 µM,> 100 µM,> 100 µM,> 100 µM,> 100 µM,> 100 µM,> 100 µM,> 100 µM,> 100 µM,> 100 µM,> 100 µM,> 100 µM,> 100 µM,> 100 µM,> 100 µM,> 100 µM,> 100 µM,> 100 µM
